Results from patent US10568884B2, “Compounds and compositions as protein kinase inhibitors” (Array BioPharma, Inc., priority 2009, dated 2020).

Tested on: not listed separately
Assay: Liver Microsomal Clearance Assay (human)
Format: in vitro ADME
Settings: extraction ratio, human liver microsomes, 1 μM compound
Protocol: (§1) The in vitro microsomal clearance assay is designed to assess potential risks associated with hepatic metabolic stability of compounds. The test compound (1 μM) was incubated with liver microsomes (0.5 mg/mL) from different species (mouse, rat, monkey, dog and human) and NADPH (1 mM) in 100 mM potassium phosphate buffer at 37° C. At specific reaction time points (0, 5, 10 and 30 minutes), reaction aliquots were removed and reactions were terminated by addition of ice cold acetonitrile containing mass spectrometry internal standard. The samples were centrifuged and the supernatants were analyzed by LC-MS/MS. In vitro metabolic half-life (t1/2, min) and intrinsic clearance (CLint, μL/min/mg) are based on the rate and extent of metabolism of the test compound as determined by the disappearance of the parent compound from the reaction mixture. These values may be scaled to predict hepatic metabolic clearance rate (CLh, mL/min/kg) and extraction ratio (ER, expressed as a ratio of the predicted hepatic metabolic clearance to hepatic blood flow in that species). In general, compounds with high predictedCLint or ER in vitro are considered to be at high risk for exposure-limiting metabolism in vivo.
With `COC(=O)N[C@@H](C)CNc1nccc(-c2cn(C(C)C)nc2-c2cccc(NS(C)(=O)=O)c2F)n1` [Compound 4, methyl N-[(2S)-1-({4-[3-(2-fluoro-3-methanesulfonamidophenyl)-1-(propan-2-yl)-1H-pyrazol-4-yl]pyrimidin-2-yl}amino)propan-2-yl]carbamate] the “ER Human” value was less than 0.31. In the case of `CCCS(=O)(=O)Nc1ccc(F)c(-c2nn(C(C)C)cc2-c2ccnc(NC[C@H](C)NC(=O)OC)n2)c1F` [Compound 7, Methyl N-[(2S)-1-[(4-{3-[2,6-difluoro-3-(propane-1-sulfonamido)phenyl]-1-(propan-2-yl)-1H-pyrazol-4-yl}pyrimidin-2-yl)amino]propan-2-yl]carbamate], the “ER Human” value is reported as 0.65. In the case of `COC(=O)N[C@@H](C)CNc1nccc(-c2cn(C(C)C)nc2-c2c(F)ccc(NS(C)(=O)=O)c2F)n1` [Compound 6, methyl N-[(2S)-1-({4-[3-(2,6-difluoro-3-methanesulfonamidophenyl)-1-(propan-2-yl)-1H-pyrazol-4-yl]pyrimidin-2-yl]amino)propan-2-yl]carbamate], the “ER Human” value is reported as 0.69.

Tested on: A375 melanoma cell line (B-Raf V600E)
Assay: A375 Cellular Proliferation Assay (A375 CP)
Format: cell-based
Settings: Homo sapiens, A-375, 48 h; A375-luc cells, 2 days; read-out: A375 CP IC50
Protocol: A375-luc cells engineered to express luciferase are plated to 384-well white clear bottom plates as 1,500 cells/50 μl/well in DMEM containing 10% FBS. Compounds of the invention dissolved in 100% DMSO at appropriate concentrations are transferred to the cells by a robotic Pin Tool (100 nl). The cells are incubated for 2 days at […], then 25 μl of BrightGlo™ is added to each well and the plates are read by luminescence.
Compound `COC(=O)N[C@@H](C)CNc1nccc(-c2cn(C(C)C)nc2-c2cccc(NS(C)(=O)=O)c2F)n1` [Compound 4, methyl N-[(2S)-1-({4-[3-(2-fluoro-3-methanesulfonamidophenyl)-1-(propan-2-yl)-1H-pyrazol-4-yl]pyrimidin-2-yl}amino)propan-2-yl]carbamate] has an IC50 of 33 nM. With `COC(=O)N[C@@H](C)CNc1nccc(-c2cn(C3CCCCO3)nc2-c2cc(Cl)cc(NS(C)(=O)=O)c2F)n1` (stereo partly drawn) [Compound 33, Methyl N-[(2S)-1-({4-(3-(5-chloro-2-fluoro-3-methanesulfonamidophenyl)-1-(oxan-2-yl)-1H-pyrazol-4-yl]pyrimidin-2-yl}amino)propan-2-yl]carbamate] the IC50 was 7 nM. Work on `COC(=O)N[C@@H](C)CNc1nccc(-c2c[nH]nc2-c2cc(Cl)cc(NS(C)(=O)=O)c2F)n1` [Compound 31] yielded an IC50 of 180 nM. `COC(=O)N[C@@H](C)CNc1nccc(-c2cn(C(C)C)nc2-c2cc(F)cc(NS(C)(=O)=O)c2F)n1` [Compound 10, methyl N-[(2S)-1-({4-[3-(2,5-difluoro-3-methanesulfonamidophenyl)-1-(propan-2-yl)-1H-pyrazol-4-yl]pyrimidin-2-yl]amino)propan-2-yl]carbamate] gave an IC50 of 3 nM. With `COC(=O)N[C@@H](C)CNc1nccc(-c2cn(C(C)C)nc2-c2cc(F)c(F)c(NS(C)(=O)=O)c2F)n1` [Compound 21, methyl N-[(2S)-1-({4-[1-(propan-2-yl)-3-(2,4,5-trifluoro-3-methanesulfonamidophenyl)-1H-pyrazol-4-yl]pyrimidin-2-yl}amino)propan-2-yl]carbamate] the IC50 was 45 nM. With `CCn1cc(-c2ccnc(NC[C@H](C)NC(=O)OC)n2)c(-c2cc(Cl)cc(NS(C)(=O)=O)c2F)n1` [Compound 11, methyl N-[(2S)-1-({4-[3-(5-chloro-2-fluoro-3-methanesulfonamidophenyl)-1-ethyl-1H-pyrazol-4-yl]pyrimidin-2-yl}amino)propan-2-yl]carbamate] the IC50 was 3 nM. `CC(C)n1cc(-c2ccnc(NCCC#N)n2)c(-c2cc(Cl)cc(NS(C)(=O)=O)c2F)n1` [Compound 17, N-[5-chloro-3-(4-{2-[(2-cyanoethyl)amino]pyrimidin-4-yl}-1-(propan-2-yl)-1H-pyrazol-3-yl)-2-fluorophenyl]methanesulfonamide] gave an IC50 of 2 nM. `CCS(=O)(=O)Nc1c(F)ccc(-c2nn(C(C)C)cc2-c2ccnc(NC[C@H](C)NC(=O)OC)n2)c1F` [Compound 26, methyl N-[(2S)-1-({4-[3-(3-ethanesulfonamido-2,4-difluorophenyl)-1-(propan-2-yl)-1H-pyrazol-4-yl]pyrimidin-2-yl}amino)propan-2-yl]carbamate] gave an IC50 of 14 nM. With `CCCS(=O)(=O)Nc1cc(Cl)cc(-c2nn(C(C)C)cc2-c2ccnc(NC[C@H](C)NC(=O)OC)n2)c1` [Compound 5, methyl N-[(2S)-1-[(4-{3-[3-chloro-5-(propane-1-sulfonamido)phenyl]-1-(propan-2-yl)-1H-pyrazol-4-yl]pyrimidin-2-yl)amino]propan-2-yl]carbamate] the IC50 was 1 nM. With `COC(=O)N[C@@H](C)CNc1nccc(-c2cn(C(C)C)nc2-c2cccc(NS(=O)(=O)CCC(F)(F)F)c2F)n1` [Compound 8] the IC50 was 27 nM. Compound `CC(C)n1cc(-c2ccnc(N)n2)c(-c2cc(Cl)cc(NS(C)(=O)=O)c2F)n1` [Compound 30, N-{3-[4-(2-aminopyrimidin-4-yl)-1-(propan-2-yl)-1H-pyrazol-3-yl]-5-chloro-2-fluorophenyl}methanesulfonamide] has an IC50 of 69 nM. For `COC(=O)N[C@@H](C)CNc1nccc(-c2cn(C(C)C)nc2-c2cc(C)cc(NS(C)(=O)=O)c2F)n1` [Compound 12, methyl N-[(2S)-1-({4-[3-(2-fluoro-3-methanesulfonamido-5-methylphenyl)-1-(propan-2-yl)-1H-pyrazol-4-yl]pyrimidin-2-yl]amino)propan-2-yl]carbamate], the IC50 was 4 nM. With `CC(C)n1cc(-c2ccnc(NCCN(C)C)n2)c(-c2cc(Cl)cc(NS(C)(=O)=O)c2F)n1` [Compound 28, N-{5-chloro-3-[4-(2-{[2-(dimethylamino)ethyl]amino}pyrimidin-4-yl)-1-(propan-2-yl)-1H-pyrazol-3-yl]-2-fluorophenyl}methanesulfonamide] the IC50 was 550 nM. With `COC(=O)N[C@@H](C)CNc1nccc(-c2cn(C(C)C)nc2-c2cc(Cl)cc(NS(C)(=O)=O)c2Cl)n1` [Compound 22, methyl N-[(2S)-1-({4-[3-(2,5-dichloro-3-methanesulfonamidophenyl)-1-(propan-2-yl)-1H-pyrazol-4-yl]pyrimidin-2-yl}amino)propan-2-yl]carbamate] the IC50 was 6 nM. `COC(=O)N[C@@H](C)CNc1nccc(-c2cn(C(C)C)nc2-c2ccc(F)c(NS(C)(=O)=O)c2F)n1` [Compound 19, methyl N-[(2S)-1-({4-[3-(2,4-difluoro-3-methanesulfonamidophenyl)-1-(propan-2-yl)-1H-pyrazol-4-yl]pyrimidin-2-yl}amino)propan-2-yl]carbamate] gave an IC50 of 93 nM. `COC(=O)N[C@H](C)CNc1nccc(-c2cn(C(C)C)nc2-c2cc(Cl)cc(NS(C)(=O)=O)c2F)n1` [Compound 20, methyl N-[(2R)-1-({4-[3-(5-chloro-2-fluoro-3-methanesulfonamidophenyl)-1-(propan-2-yl)-1H-pyrazol-4-yl]pyrimidin-2-yl}amino)propan-2-yl]carbamate] gave an IC50 of 7 nM. For `CCCS(=O)(=O)Nc1c(F)ccc(-c2nn(C(C)C)cc2-c2ccnc(NC[C@H](C)NC(=O)OC)n2)c1F` [Compound 34], the IC50 was 13 nM. With `CCCS(=O)(=O)Nc1ccc(F)c(-c2nn(C(C)C)cc2-c2ccnc(NC[C@H](C)NC(=O)OC)n2)c1F` [Compound 7, Methyl N-[(2S)-1-[(4-{3-[2,6-difluoro-3-(propane-1-sulfonamido)phenyl]-1-(propan-2-yl)-1H-pyrazol-4-yl}pyrimidin-2-yl)amino]propan-2-yl]carbamate] the IC50 was 8 nM. Compound `COC(=O)N[C@@H](C)CNc1nccc(-c2cn(C(C)C)nc2-c2cc(Cl)cc(NS(=O)(=O)C3CC3)c2F)n1` [Compound 25, methyl N-[(2S)-1-({4-[3-(5-chloro-3-cyclopropanesulfonamido-2-fluorophenyl)-1-(propan-2-yl)-1H-pyrazol-4-yl]pyrimidin-2-yl}amino)propan-2-yl]carbamate] has an IC50 of 2 nM. `COC(=O)N[C@@H](C)CNc1nccc(-c2cn(C(C)C)nc2-c2cc(F)cc(NS(C)(=O)=O)c2Cl)n1` [Compound 15, Methyl N-[(2S)-1-({4-[3-(2-chloro-5-fluoro-3-methanesulfonamidophenyl)-1-(propan-2-yl)-1H-pyrazol-4-yl]pyrimidin-2-yl}amino)propan-2-yl]carbamate] gave an IC50 of 4 nM. `COC(=O)N[C@@H](C)CNc1nccc(-c2cn(C(C)C)nc2-c2ccnc(NS(C)(=O)=O)c2Cl)n1` [Compound 14, methyl N-[(2S)-1-({4-[3-(3-chloro-2-methanesulfonamidopyridin-4-yl)-1-(propan-2-yl)-1H-pyrazol-4-yl]pyrimidin-2-yl}amino)propan-2-yl]carbamate] showed an IC50 of 79 nM. `COC(=O)N[C@@H](C)CNc1nccc(-c2cn(C(C)C)nc2-c2c(F)ccc(NS(C)(=O)=O)c2F)n1` [Compound 6, methyl N-[(2S)-1-({4-[3-(2,6-difluoro-3-methanesulfonamidophenyl)-1-(propan-2-yl)-1H-pyrazol-4-yl]pyrimidin-2-yl]amino)propan-2-yl]carbamate] showed an IC50 of 46 nM. In the case of `COC(=O)N[C@@H](C)CNc1nccc(-c2cn(C(C)C)nc2-c2cccc(NS(C)(=O)=O)c2)n1` [Compound 23, methyl N-[(2S)-1-({4-[3-(3-methanesulfonamidophenyl)-1-(propan-2-yl)-1H-pyrazol-4-yl]pyrimidin-2-yl}amino)propan-2-yl]carbamate], the IC50 is reported as 1150 nM. `COC(=O)N[C@@H](C)CNc1nccc(-c2cn(C(C)C)nc2-c2ccnc(NS(C)(=O)=O)c2F)n1` [Compound 16, methyl N-[(2S)-1-({4-[3-(3-fluoro-2-methanesulfonamidopyridin-4-yl)-1-(propan-2-yl)-1H-pyrazol-4-yl]pyrimidin-2-yl}amino)propan-2-yl]carbamate] gave an IC50 of 1400 nM. Compound `CCS(=O)(=O)Nc1c(F)c(F)cc(-c2nn(C(C)C)cc2-c2ccnc(NC[C@H](C)NC(=O)OC)n2)c1Cl` [Compound 18, methyl N-[(2S)-1-({4-[3-(2-chloro-3-ethanesulfonamido-4,5-difluorophenyl)-1-(propan-2-yl)-1H-pyrazol-4-yl]pyrimidin-2-yl}amino)propan-2-yl]carbamate] has an IC50 of 12 nM. For `COC(=O)N[C@@H](C)CNc1nccc(-c2cn(C(C)C)nc2-c2cc(Cl)cc(NS(C)(=O)=O)c2)n1` [Compound 2, methyl N-[(2S)-1-({4-[3-(3-chloro-5-methanesulfonamidophenyl)-1-(propan-2-yl)-1H-pyrazol-4-yl]pyrimidin-2-yl}amino)propan-2-yl]carbamate], the IC50 was 18 nM.

Tested on: not listed separately
Assay: Liver Microsomal Clearance Assay (mouse)
Format: in vitro ADME
Settings: extraction ratio, mouse liver microsomes, 1 μM compound
Protocol: as §1
With `COC(=O)N[C@@H](C)CNc1nccc(-c2cn(C(C)C)nc2-c2cccc(NS(C)(=O)=O)c2F)n1` [Compound 4, methyl N-[(2S)-1-({4-[3-(2-fluoro-3-methanesulfonamidophenyl)-1-(propan-2-yl)-1H-pyrazol-4-yl]pyrimidin-2-yl}amino)propan-2-yl]carbamate] the “ER Mouse” value was 0.40. For `CCCS(=O)(=O)Nc1ccc(F)c(-c2nn(C(C)C)cc2-c2ccnc(NC[C@H](C)NC(=O)OC)n2)c1F` [Compound 7, Methyl N-[(2S)-1-[(4-{3-[2,6-difluoro-3-(propane-1-sulfonamido)phenyl]-1-(propan-2-yl)-1H-pyrazol-4-yl}pyrimidin-2-yl)amino]propan-2-yl]carbamate], the “ER Mouse” value was 0.91.
